From patent US20200048237A1, “A Free Base Oxazine Derivative in Crystalline Form” (NOVARTIS AG, priority 2017, published 2020)
Blank lines part the entries; values can stand above or below the compound they belong to.

Experiments:
[1] = Drug-drug interaction study in healthy volunteers: plasma PK of Compound 1 alone and with strong CYP3A4 inhibitor itraconazole; type: in vivo, human; conditions: with itraconazole 200 mg q.d. vs Compound 1 alone
[2] = Drug-drug interaction study in healthy volunteers: plasma PK of Compound 1 alone and with strong CYP3A4 inducer rifampicin; type: in vivo, human; conditions: with rifampicin 600 mg q.d. vs Compound 1 alone
[3] = Chemical stability of crystalline Form A exposed to high temperature and/or humidity (UPLC purity, XRPD solid form); type: physicochemical
Protocol: The stability of crystalline Form A was tested by exposing the crystalline material to high temperature and/or humidity for at least three weeks. After storage at high temperature and/or humidity, bulk crystalline material was sampled and dissolved in acetonitrile:water (80:20) and the purity analysed in a Waters Aquity UPLC using the following conditions: […]

Increase of mean AUC of Compound 1 [1]: 2-3 fold
Increase of mean Cmax of Compound 1 [1]: 25%
Decrease of mean AUC of Compound 1 [2]: 5-6 fold
Decrease of mean Cmax of Compound 1 [2]: 2.5 fold
Structure (SMILES): C[C@@]1(c2nc(NC(=O)c3ncc(C(F)(F)F)cc3Cl)ccc2F)CO[C@@](C)(C(F)(F)F)C(N)=N1 [Compound 1, N-(6-((3R,6R)-5-amino-3,6-dimethyl-6-(trifluoromethyl)-3,6-dihydro-2H-1,4-oxazin-3-yl)-5-fluoropyridin-2-yl)-3-chloro-5-(trifluoromethyl)picolinamide]

Solid State Form ([3]; RT, exposure time 0): Crystalline
Thermodynamic stability among polymorphs ([3]; compared with Form B, hydrate Form HA and amorphous form): most thermodynamically stable polymorph
Structure (SMILES): C[C@@]1(c2nc(NC(=O)c3ncc(C(F)(F)F)cc3Cl)ccc2F)CO[C@@](C)(C(F)(F)F)C(N)=N1 [Form A, N-(6-((3R,6R)-5-amino-3,6-dimethyl-6-(trifluoromethyl)-3,6-dihydro-2H-1,4-oxazin-3-yl)-5-fluoropyridin-2-yl)-3-chloro-5-(trifluoromethyl)picolinamide]

Solid form stability by XRPD analysis ([3]; same conditions as Table 12 (high temperature and/or humidity)): conversion into Form A occurred
Structure (SMILES): C[C@@]1(c2nc(NC(=O)c3ncc(C(F)(F)F)cc3Cl)ccc2F)CO[C@@](C)(C(F)(F)F)C(N)=N1 [Form B, N-(6-((3R,6R)-5-amino-3,6-dimethyl-6-(trifluoromethyl)-3,6-dihydro-2H-1,4-oxazin-3-yl)-5-fluoropyridin-2-yl)-3-chloro-5-(trifluoromethyl)picolinamide]
